Source: US12203060B1, “Cell culture” (FIBROFIND IP LIMITED, priority 2015, dated 2025)

Assays:
[1] = tested on: precision cut liver slices (PCLS); experiment: Expression of fibrosis genes in precision cut liver slices cultured on CMR2; format: cell-based; settings: for expression of fibrosis genes (pro-collagen 1, aSMA, TIMP1): PCLS on CMR2, stimulated for 72 h after a 24 h rest period, FIG. 31
Experimental: (§1) Liver tissue was placed in a 10 cm dish containing Hanks Buffered Saline Solution (HBSS+, Lonza, BE10-508F). Four to eight mm cores of liver tissue were made using a Stiefel Biopsy Punch. Cores were then transferred to a metal mould and submerged in 2.5-3.0% low gelling temperature agarose (Sigma, A9414) and then placed on ice for 2-5 minutes.
(§2) Once set, the cores in agarose were super-glued to a vibratome mounting stage and submersed in the media chamber in ice cold HBSS+prior to cutting on a Leica VT1200 S fully automated vibrating blade microtome. Liver tissue cores were cut at a speed of 0.3 mm/see, and an amplitude 2 mm and thickness (step size) of 250 μm. Slices having a thickness of between 200-400 μm can be used.
Slices were transferred to 3 μm, 8 μm or 100 μm pore inserts provided in static (Griener) or CMR tissue culture plates. The CMR tissue culture plates of embodiments of the invention comprised either holes between adjacent wells or were rapid prototyped from CAD design to comprise slots between wells. The wells contained slice culture media. The slices were cultured under static, unidirectional or rocked conditions at 37° C. in 5% carbon dioxide in a humidified tissue culture incubator. Twelve or twenty-four well CMR tissue culture plates were used, as indicated.
The slice culture media comprised the following components: • Williams Medium E (Sigma, W4128) • 2% Heat Inactivated Fetal Bovine Serum (Gibco) • Penicillin-Streptomycin (Sigma, P0781) • L-glutamine (Sigma, G7513) • Pyruvate (Sigma, S8636) • 0.5 uM Insulin/transferrin selenium mix (Gibco 51500-056) • 0.1 uM dexamethasone (Sigma, D4902) Urea Assay (Universal Biologicals Cambridge)

[2] = tested on: precision cut liver slices (PCLS); experiment: Albumin production by precision cut liver slices cultured on CMR2 (albumin ELISA); format: cell-based; settings: PCLS on CMR2, fat, fat+LPS or BSA vehicle for 48 h after a 24 h rest period; FIG. 27
Experimental: as §1, §2
Slices were transferred to 3 μm, 8 μm or 100 μm pore inserts provided in static (Griener) or CMR tissue culture plates. […]
100 μl of the slice culture media diluted 1:250 was removed from wells comprising slices in either a static culture plate, a unidirectional system or the CMR culture plate apparatus which was rocked using a rocking apparatus as described herein. The media was used to quantify albumin release using the Rat Albumin ELISA Quantitation Set (catalogue number E110-125) or Human Albumin ELISA Quantitation Set (catalogue number E80-129) following manufacturer's instructions.

[3] = PCLS on CMR2, 3 ng/ml TGFb1 for 48 h, compared to control (untreated), FIG. 26B

Q: transforming growth factor beta [TGFb] was tested. Which “expression of fibrosis genes (pro-collagen 1, aSMA, TIMP1)” value [1] did it give?
A: Its value is “induce expression”.

Q: How did the “expression of the fibrosis gene alpha-smooth muscle actin (aSMA)” value [1, 3] turn out when “transforming growth factor beta 1 [TGFb1]” was run?
A: Its value is “induced expression”.

Q: What about the “expression of the fibrosis gene collagen I” value [1, 3] of the same molecule?
A: Its value is “induced expression”.

Q: And the “expression of the fibrosis gene tissue inhibitor of metalloprotease 1 (TIMP1)” value [1, 3]?
A: Its value is “induced expression”.

Q: Which albumin production [2] does the source give for Lipopolysaccharide [LPS] here?
A: Its albumin production is “did not affect”.

B1: platelet derived growth factor b (protein, UniProt P01127 82-190, looked up)
Platelet-derived growth …: SLGSLTIAEPAMIAECKTRTEVFEISRRLIDRTNANFLVWPPCVEVQRCSGCCNNRNVQCRPTQVQLRPVQVRKIEIVRKKPIFKKATVTLEDHLACKCETVAAARPVT
modifications: homodimer
notes: fibrosis-stimulating factor added to liver slices
Q: B1 was tested. Which “expression of fibrosis genes (pro-collagen 1, aSMA, TIMP1)” value [1] did it give?
A: Its value is “induce expression”.
